Assay results published in US20230022117A1, “RNAi-BASED TARGETING COMPOUNDS AND USES THEREOF TO PREVENT ACQUIRED HEARING LOSS” (MUSC FOUNDATION FOR RESEARCH DEVELOPMENT, priority 2019, published 2023).

Tests used:
Type in all cases: in vivo, mouse
[1] = Body weight and survival with CDDP treatment
Procedure: There is no difference in auditory threshold shifts between CDDP 2.5-4 mg/kg with 55-60 dB shifts when measured on day 7 and on day 14 post treatment. […] This model was used to test the effect of AMPKα siRNA.
Body weight was measured before treatment, on treatment days, and 7 and 14 d post treatment. […] Data are presented as means±SD. CDDP2 mg/kg: n=2, CDDP 2.5 mg/kg: n=5, CDDP 3 mg/kg: n=2, CDDP 4 mg/kg: n=3.

CBA/J mice [2] = test: Cisplatin-plus-furosemide-induced hearing loss: ABR threshold shifts; conditions: CDDP 2.5-4 mg/kg plus furosemide 200 mg/kg IP; measured on day 7 and on day 14 post treatment
CBA/J mice [3] = test: Kanamycin-plus-furosemide-induced hearing loss: ABR threshold shifts; conditions: 8, 16, and 32 kHz; for hearing loss / auditory threshold shifts (in words): single treatment, KM 800 mg/kg SQ and/or Fu 200 mg/kg IP, 14 d after the injections; for KM-furosemide-induced auditory threshold shifts: 14 d after the injection
CBA/J mice [4] = test: Noise-induced hearing loss (101-dB noise): DPOAE thresholds; conditions: pretreatment via intra-tympanic delivery on RWM; 12-40 kHz; 14 d after noise exposure
outer hair cells (OHCs) [5] = test: Kanamycin-furosemide-induced OHC loss: hair cell counts; conditions: siRNA pretreatment via PSC; 14 d after the lesions
Description: siCaMKKβ (Thermo Fisher, #n437808) (sense: […] SEQ ID NO: 1; antisense […] SEQ ID NO: 2) or siControl (Thermo Fisher, #4390844) was locally delivered via intra-tympanic application onto the RWM as previously described (Oishi et al., 2013; Hill et al., 2016) or via PSC to the endolymph based on reports (Guo, 2018 #3975; Tao, 2018 #3973). Briefly, after anesthesia, a retroauricular incision was made to approach the temporal bone. For intra-tympanic delivery onto the RWM, the otic bulla was identified ventral to the facial nerve and a shallow hole was made in the thin part of the otic bulla with a 30-G needle and enlarged with forceps to a diameter of 2 mm in order to visualize the round window. A customized sterile micro medical tube was inserted into the hole just above the round window niche (RWN) to slowly deliver 10 μL (0.6 μg) of siCaMKKβ or siControl. For PSC delivery, the stemocleidomastoid muscle was separated to expose the PSC. A small hole was made with the tip of a 30-G needle on the PSC and left open for about 1 min (there was no obvious endolymph leakage). […]
Images from the apex through the base of the DAB-stained preparations were captured using a 20× lens on the Zeiss microscope. The lengths of the cochlear epithelia were measured and recorded in millimeters. OHCs were counted from the apex to the base along the entire length of the mouse cochlear epithelium. […]

IHC synapses = test: Noise-induced loss of IHC synapses: CtBP2/GluA2 counts; conditions: pretreatment via intra-tympanic delivery onto the RWM; 101-dB noise; 14 d; loss at 22 and 32 kHz
Procedure: Unrestrained CBA/J male mice at the age of 12 weeks (one mouse per stainless steel wire cage, approximately 9 cm^3) were exposed to broad band noise from to 2-20 kHz at 101 dB sound pressure level (SPL) for 2 h to induce permanent threshold shifts with loss of synaptic ribbons and OHCs, but not IHCs, or 106 dB to induce permanent threshold shifts with losses of ribbons, OHCs, and IHCs by 14 d after the noise exposure. […] Audio CD sound files were created and equalized with audio editing software (Audition 3; Adobe Systems, Inc.). The background sound intensity of the environment surrounding the cages was 65 dB as measured with a sound level meter (model 1200; Quest Technologies). Sound levels for noise exposure are calibrated with a sound level meter at multiple locations within the sound chamber to ensure the uniformity of the sound field before and after exposure. […]
A procedure as previously described by Hill et al., 2016 was followed. Immunofluorescence of CtBP2 on surface preparations was quantified from original confocal images, each taken with a 63×-magnification lens under identical Z-stack conditions in […] intervals and equal parameter settings for laser gains and PMT gains. […] The number of synaptic ribbons was counted using ImageJ software (National Institutes of Health, Bethesda, Md.). […]

outer hair cells (OHCs) [6] = test: Noise-induced OHC loss: hair cell counts along the cochlear duct; conditions: pretreatment via intra-tympanic delivery on RWM; 101-dB noise; 14 d after exposure
Procedure: (§1) Unrestrained CBA/J male mice at the age of 12 weeks (one mouse per stainless steel wire cage, approximately 9 cm^3) were exposed to broad band noise from to 2-20 kHz at 101 dB sound pressure level (SPL) for 2 h to induce permanent threshold shifts with loss of synaptic ribbons and OHCs, but not IHCs, or 106 dB to induce permanent threshold shifts with losses of ribbons, OHCs, and IHCs by 14 d after the noise exposure. […] Audio CD sound files were created and equalized with audio editing software (Audition 3; Adobe Systems, Inc.). The background sound intensity of the environment surrounding the cages was 65 dB as measured with a sound level meter (model 1200; Quest Technologies). Sound levels for noise exposure are calibrated with a sound level meter at multiple locations within the sound chamber to ensure the uniformity of the sound field before and after exposure. Control mice were kept in silence (without use of the loudspeaker) within the same chamber for 2 h. […]
Images from the apex through the base of the DAB-stained preparations were captured using a 20× lens on the Zeiss microscope. The lengths of the cochlear epithelia were measured and recorded in millimeters. OHCs were counted from the apex to the base along the entire length of the mouse cochlear epithelium.

CaMKKβ = test: Silencing efficiency: CaMKKβ immunolabeling in OHCs after siRNA delivery; conditions: basal turn, 22-32 kHz
Description: siCaMKKβ (Thermo Fisher, #n437808) (sense: […] SEQ ID NO: 1; antisense […] SEQ ID NO: 2) or siControl (Thermo Fisher, #4390844) was locally delivered via intra-tympanic application onto the RWM as previously described (Oishi et al., 2013; Hill et al., 2016) or via PSC to the endolymph based on reports (Guo, 2018 #3975; Tao, 2018 #3973). Briefly, after anesthesia, a retroauricular incision was made to approach the temporal bone. For intra-tympanic delivery onto the RWM, the otic bulla was identified ventral to the facial nerve and a shallow hole was made in the thin part of the otic bulla with a 30-G needle and enlarged with forceps to a diameter of 2 mm in order to visualize the round window. […]
Immunohistochemistry is well accepted as a semi-quantitative methodology when used with careful consideration of the utility and semi-quantitative nature of these assays (Taylor, 2006 #3978; Walker, 2006 #3979). The specificity of antibodies must be first detected by Western blot analysis. Antibodies showing only a single band with the correct molecular weight were used for immunolabeling on surface preparations and quantification of signaling in OHCs. […] The grayscale value was determined in only the hair cells to quantify the change in fluorescence intensity. This procedure provided quantitative measurements that are not confounded by protein expression in other cell types of the cochlea. […]

CBA/J mice [7] = test: Noise-induced hearing loss (101-dB broad band noise): ABR threshold shifts; conditions: pretreatment via intra-tympanic delivery on RWM; 8, 16, and 32 kHz; 14 d after noise exposure; vs siControl
Procedure: as §1
ABRs were measured in the left ears of anaesthetized mice before and two weeks after noise exposure. […] Body temperature was monitored and maintained near 37° C. with a heating pad. […] ABRs were measured at 8, 16, and 32 kHz. […] Thresholds were determined for each frequency by reducing the intensity in 10-dB increments and then in 5-dB steps near threshold until no organized responses were detected. […]

CBA/J mice [8] = test: Kanamycin-furosemide-induced damage to OHC function: DPOAE; conditions: siRNA pretreatment via PSC; 14 d after the injection
[9] = tested on: OHC mechanotransduction channels; test: FM1-43 uptake into OHCs (mechanotransduction channel function); conditions: siRNA delivered through the PSC 48 h before application of FM1-43
Procedure: (§2) Since aminoglycoside antibiotics are known to enter outer hair cells (OHCs) mainly through mechanotransduction channels (MTCs), to address if protective effects of pretreatment with siCaMKKβ is due to blockade of kanamycin and/or furosemide entering OHCs, we assessed OHC MTCs using FM1-43FX, based on prior literature (Meyers et al., 2003; Taylor et al., 2008; Nakanishi et al., 2018). siCaMKKβ was delivered through the posterior semicircular canal (PSC) 48 h before application of FM1-43 to measure MTC function in OHCs. […] Scale bar=10 μm.
as §2, with “with siAMPKα1” for “with siCaMKKβ”, “2018). siAMPKα” for “2018). siCaMKKβ”

For `[NH2][Pt]([NH2])([Cl])[Cl]` [CDDP, cisplatin], the death ([1]; 3 mg/kg CDDP treated group, day 8 after the treatment) was “One mouse of the 3 mg/kg CDDP treated group died”, the “changes in body weight” value ([1]; CDDP at and above 3 mg/kg, day 7 post treatment vs beginning of the treatment) was “loss of body weight” and the “changes in body weight” value ([1]; CDDP at doses below or equal 2.5 mg/kg) was “no significant changes”. The auditory threshold shifts (CBA/J mice [2]) was 55-60 dB.

In the case of `NC[C@H]1O[C@H](O[C@H]2[C@H](O)[C@@H](O[C@H]3O[C@H](CO)[C@@H](O)[C@H](N)[C@H]3O)[C@H](N)C[C@@H]2N)[C@H](O)[C@@H](O)[C@@H]1O` [KM, kanamycin, reference compound], the “hearing loss / auditory threshold shifts (in words)” value (CBA/J mice [3]) is reported as “does not induce hearing loss”.

In the case of `NS(=O)(=O)c1cc(C(=O)O)c(NCc2ccco2)cc1Cl` [furosemide, reference compound], the “hearing loss / auditory threshold shifts (in words)” value (CBA/J mice [3]) is reported as “does not induce hearing loss”.

With “siCaMKKβ: CaMKKβ siRNA (Thermo Fisher, #n437808); sense GAGCACAAAUAAUUGUUUUTT SEQ ID NO: 1; antisense AAAACAAUUAUUUGUGCUCTA SEQ ID NO: 2 (chemistry not given here)” the “101-dB-noise-increased DPOAE thresholds” value (CBA/J mice [4]) was “significantly attenuates”, the “KM-furosemide-induced OHC loss” value (outer hair cells (OHCs) [5]) was “completely prevents” and the “noise-induced loss of synapses (CtBP2/GluA2)” value (IHC synapses) was “prevented”. The “noise-induced OHC loss” value (outer hair cells (OHCs) [6]) was “significantly reduced”, the “decrease of CaMKKβ immunolabeling in grayscale in OHCs compared to siControls” value (CaMKKβ; 72 h after PSC delivery) was “about 90%” and the “decrease of CaMKKβ immunolabeling in grayscale in OHCs compared to siControls” value (CaMKKβ; 72 h after intra-tympanic delivery onto the RWM) was “about 40%”. For the same compound, the “threshold shifts induced by exposure to 101-dB noise” value (CBA/J mice [7]) was “significantly decreases”, the “KM-furosemide-induced auditory threshold shifts” value (CBA/J mice [3]; siRNA pretreatment via PSC) was “completely prevented” and the “KM-furosemide-induced auditory threshold shifts” value (CBA/J mice [3]; siRNA pretreatment via intra-tympanic delivery onto the RWM) was “significant reduction”. The “KM-furosemide-induced reduction of DPOAE (damage to OHC function)” value (CBA/J mice [8]) was “completely prevented” and the “FM1-43 uptake into OHCs compared with siControl mice” value [9] was “does not change”.
